In brackets after ≈: the same amount, converted by molar mass.
Tests used:
[1] = test system: Meth-A solid tumor; assay: Inhibition of tumor growth in vivo (Meth-A solid tumor, Balb/c mouse); design: species or system murine (female Balb/c mouse); settings: intraperitoneal, once a day for 4 days; for Tumor weight: tumor weighed two weeks after transplantation, mean ± standard deviation; for Inhibition of tumor growth: two weeks after transplantation, versus control
Procedure: The inhibition of tumor growth by the compounds of the present invention in vivo were evaluated in the following manner. 10^6 cells of Meth-A murine tumor cells were transplanted to the dorsal subcutaneous part of a female Balb/c mouse aged 6 weeks. On the next day of the transplantation, a test compound at each concentrations was intraperitoneally administered to the animal. The compound was suspended in a 1% solution of carboxymethyl cellulose (CMC) and thoroughly mixed ultrasonically. Alternately, it was thoroughly ground in a mortar and then suspended in a CMC solution. Thus a sample for injection was prepared. The test compound was administered once a day for 4 days continuously. To a control group, a 1% solution of CMC was administered once a day for 4 days continuously. Two weeks after the transplantation, the dorsal tumor was taken out and weighed to thereby determine the inhibition of tumor growth.

[2] = test system: Meth-A cells; assay: Cytotoxicity in vitro (MTT assay, 3 days incubation); assay type: cell-based, murine; settings: Mus musculus, 72 h, read-out: 50% inhibition concentration (IC50)
Procedure: The cytotoxic effect of each compound of the present invention in vitro was evaluated in the following manner. Dulbecco's modified MEM medium containing 10% (v/v) of fetal calf serum was used as a medium while Meth-A solid tumor was used as a tumor. The cytotoxic effect of each compound on this tumor was examined. Meth-A cells, which had been subcultured in a carbon dioxide gas incubator, were suspended in the above-mentioned medium so as to give a density of 5×10^4 cells/ml. 135 μl portions of the suspension thus obtained were poured into 96-well microtiter plates. Each test compound was dissolved in a small amount of DMF and diluted with Dulbecco's modified MEM medium to a predetermined concentration. 15 μl portions of test compound solutions at various concentrations were added thereto and then incubated in a carbon dioxide gas incubator for 3 days. After the completion of the incubation, the 50% inhibition concentration (IC50) was determined by the MTT assay method ["Igaku no Ayumi", vol. 128, 733-735 (1984)].

[3] = Acute toxicity, intraperitoneal; settings: mouse, in vivo, ip, female Balb/c mice aged 7 weeks
[4] = test system: conversion of arachidonic acid into prostaglandin H2; settings: N. Kitahara et al., J. Antibiotics, 34, 1556-1561 (1981); cited from earlier work
[5] = test system: Ehrich ascites tumor; settings: cited from earlier work

SMILES	IC50 [2] [µg/mL]	LD50 [3] [mg/kg]	Tumor weight ([1]; 30 mg/kg/day) [g]	Inhibition of tumor growth ([1]; 30 mg/kg/day) [%]	other results
[C-]#[N+]C(=Cc1ccc(OC)cc1)C(=Cc1ccc(OCC(=O)OCC)cc1)[N+]#[C-] [Compound No. 1]	0.64 (≈ 1.65 µM)	120	–	–	Tumor weight ([1]; 10 mg/kg/day): 0.39 ± 0.08 g; Inhibition of tumor growth ([1]; 10 mg/kg/day): 67.5%
[C-]#[N+]C(=Cc1ccc(OC)cc1)C(=Cc1ccc(OCc2ccccc2)cc1)[N+]#[C-] [Compound No. 2, 1-(4'-benzyloxyphenyl)-4-(4'-methoxyphenyl)-2,3-diisocyano-1,3-butadiene]	0.7 (≈ 1.78 µM)	–	0.22 ± 0.04	67.6	–
[C-]#[N+]C(=Cc1ccc(OC)cc1)C(=Cc1ccc(OCCF)cc1)[N+]#[C-] [Compound No. 3, 1-[4'-(2"-fluoroethyl)oxyphenyl]-4-(4'-methoxyphenyl)-2,3-diisocyano-1,3-butadiene]	1.5 (≈ 4.31 µM)	> 120	–	–	–
[C-]#[N+]C(=Cc1ccc(OC)cc1)C(=Cc1ccc(OCCCCCC)cc1)[N+]#[C-] [Compound No. 4, 1-(4'-n-hexyloxyphenyl)-4-(4'-methoxyphenyl)-2,3-diisocyano-1,3-butadiene]	–	–	0.27 ± 0.20	71.9	–
[C-]#[N+]C(=Cc1ccc(OC)cc1)C(=Cc1ccc(OCc2ccncc2)cc1)[N+]#[C-] [Compound No. 5, 1-[4'-(4"-pyridyl)methyloxyphenyl]-4-(4'-methoxyphenyl)-2,3-diisocyano-1,3-butadiene]	0.7 (≈ 1.78 µM)	–	–	–	–
[C-]#[N+]C(=Cc1ccc(OC)cc1)C(=Cc1ccc(OCc2ccccn2)cc1)[N+]#[C-] [Compound No. 6, 1-[4'-(2"-pyridyl)methyloxyphenyl]-4-(4'-methoxyphenyl)-2,3-diisocyano-1,3-butadiene]	0.24 (≈ 0.61 µM)	> 120	–	–	–
[C-]#[N+]C(=Cc1ccc(OC)cc1)C(=Cc1ccc(OCc2ccc(C)cc2)cc1)[N+]#[C-] [Compound No. 7, 1-[4'-(4"-toluyl)methyloxyphenyl]-4-(4'-methoxyphenyl)-2,3-diisocyano-1,3-butadiene]	1.8 (≈ 4.43 µM)	–	0.60 ± 0.20	68.4	–
[C-]#[N+]C(=Cc1ccc(OC)cc1)C(=Cc1ccc(OC(=O)c2ccccc2)cc1)[N+]#[C-] [Compound No. 8, 1-(4'-benzoyloxyphenyl)-4-(4'-methoxyphenyl)-2,3-diisocyano-1,3-butadiene]	1.7 (≈ 4.18 µM)	> 300	1.40 ± 0.30	26.3	–
[C-]#[N+]C(=Cc1ccc(OC)cc1)C(=Cc1ccc(OCc2ccc(Cl)cc2)cc1)[N+]#[C-] [Compound No. 9, 1-[4'-(4"-chlorophenyl)methyloxyphenyl]-4-(4'-methoxy-phenyl)-2,3-diisocyano-1,3-butadiene]	1.8 (≈ 4.22 µM)	> 300	0.60 ± 0.50	68.4	–
[C-]#[N+]C(=Cc1ccc(O)cc1)C(=Cc1ccc(OC)cc1)[N+]#[C-] [xanthocillin X monomethyl ether, 1-(4'-hydroxyphenyl)-2,3-diisocyano-4-(4'-methoxyphenyl)-1,3-butadiene]	–	–	–	–	inhibition of biosynthesis of prostaglandin or thromboxane [4]: would inhibit the biosynthesis of prostaglandin or thromboxane; proliferation of Ehrich ascites tumor ([5]; during administration): would suppress the proliferation of Ehrich ascites tumor; proliferation of cancer cells after stopping the administration ([5]; immediately after stopping the administration): the cancer cells would proliferate again immediately after stopping the administration of this compound

From patent US5210097A, “Xanthocillin X monomethyl ether derivative and antitumor agent containing the same” (Meiji Seika Kaisha Ltd., priority 1989, dated 1993)
